Experiment [1] deals with T1, recombinant N-terminal GST-tagged human Rho kinase 1 (ROCK1, amino acids 1-535) (Homo sapiens, UniProt Q13464).
T1 construct: ROCK1, amino acids 1-535; purchased Invitrogen Inc. PV-3691
The experiment can be described thus: In vitro Rho kinase assay (luciferase-based ATP consumption), ROCK1. The format is biochemical. The conditions noted are these: recombinant GST-tagged human ROCK1, luciferase-based ATP consumption; read-out: ROCK1 IC50. The method, then: In Vitro Rho Kinase Assay
Rho kinase biochemical assays described below depend on firefly luciferase-based, indirect measurement of total ATP consumption by the kinase following incubation with substrate and ATP. 25 μl of Rho kinase assay buffer (20 mM Tris-HCL [pH 7.5], 1 mM MgCl2, 0.4 mM CaCl2, 0.15 mM EGTA, 0.1 mg/ml bovine serum albumin) containing 0.82 μg/ml of recombinant N-terminal GST-tagged human Rho kinase 1 (ROCK1, amino acids 1-535, Invitrogen Inc., cat. #PV-3691) or recombinant N-terminal GST-tagged human Rho kinase 2 (ROCK2, amino acids 1-552, Invitrogen Inc., cat #PV3759), 100 μg/ml S6 peptide substrate (related to amino acids 218-249 of the human 40S ribosomal protein S6, and suitable for ROCK1 or ROCK2, e.g. Upstate/Millipore Inc., cat #12-420), and 3 µM ATP are dispensed to wells of a 384 multi-well opaque plate. The plate is centrifuged for 30 seconds at approximately 200×g. 240 nl of test compound in DMSO is dispensed to each well by passive pin transfer. The lag phase of this in vitro kinase reaction permits addition of compounds soon after the reaction initiates. The reaction is allowed to incubate at 30° C. for 2 hours. The assay plates are sealed and maintained in a humidified environment. After 2 hours, 25 μl of easylite protein kinase assay reagent (Perkin-Elmer, Inc.) is dispensed. After an additional 10 minute incubation at room temperature (about 22° C.), luminescence activity is measured on a Molecular Devices Analyst multi-mode plate reader or other suitable plate reader. Kinase inhibition results in less ATP consumption, and therefore increased luminescence signal. Negative control activity is measured with DMSO lacking any test compound. The positive control is 2-methyl-1-(4-methylisoquinolin-5-ylsulfonyl)perhydro-1,4-diazepine hydrochloride (aka H-1152P, HCl salt). Efficacy is measured as a percentage of positive control activity. […] The designation NT means the cited example was not tested.

The target of experiment [2] is T2, recombinant N-terminal GST-tagged human Rho kinase 2 (ROCK2, amino acids 1-552) (Homo sapiens, UniProt O75116).
T2 construct: ROCK2, amino acids 1-552; purchased Invitrogen Inc. PV3759
As to the kind of experiment: In vitro Rho kinase assay (luciferase-based ATP consumption), ROCK2. It counts as biochemical. The conditions noted are these: recombinant GST-tagged human ROCK2, luciferase-based ATP consumption; read-out: ROCK2 IC50. Summed up: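 Luciferase-based luminescence of leftover ATP after 2 h at 30 °C, where inhibition raises signal, reports activity of GST-tagged ROCK2 (aa 1-552) at 0.82 μg/ml. Conditions: S6 peptide 100 μg/ml, […], pH 7.5 Tris buffer. Results given as percent of H-1152P control activity.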

Broadly, the IC50 is the concentration at which inhibition is half-maximal.

T1 sequence (Q13464 1-535): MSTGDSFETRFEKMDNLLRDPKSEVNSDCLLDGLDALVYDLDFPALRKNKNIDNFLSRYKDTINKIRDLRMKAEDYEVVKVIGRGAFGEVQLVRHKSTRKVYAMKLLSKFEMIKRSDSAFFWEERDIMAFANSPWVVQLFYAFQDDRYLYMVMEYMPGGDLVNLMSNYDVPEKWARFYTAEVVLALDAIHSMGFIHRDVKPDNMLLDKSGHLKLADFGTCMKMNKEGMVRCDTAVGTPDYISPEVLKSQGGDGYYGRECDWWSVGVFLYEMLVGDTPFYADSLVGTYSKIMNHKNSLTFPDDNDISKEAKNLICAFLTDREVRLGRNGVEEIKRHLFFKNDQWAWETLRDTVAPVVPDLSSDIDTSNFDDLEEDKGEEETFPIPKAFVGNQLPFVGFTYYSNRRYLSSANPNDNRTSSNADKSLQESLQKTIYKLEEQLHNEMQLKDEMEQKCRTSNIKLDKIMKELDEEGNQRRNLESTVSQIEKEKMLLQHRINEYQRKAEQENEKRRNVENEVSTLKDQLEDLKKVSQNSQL
T2 sequence (O75116 1-552): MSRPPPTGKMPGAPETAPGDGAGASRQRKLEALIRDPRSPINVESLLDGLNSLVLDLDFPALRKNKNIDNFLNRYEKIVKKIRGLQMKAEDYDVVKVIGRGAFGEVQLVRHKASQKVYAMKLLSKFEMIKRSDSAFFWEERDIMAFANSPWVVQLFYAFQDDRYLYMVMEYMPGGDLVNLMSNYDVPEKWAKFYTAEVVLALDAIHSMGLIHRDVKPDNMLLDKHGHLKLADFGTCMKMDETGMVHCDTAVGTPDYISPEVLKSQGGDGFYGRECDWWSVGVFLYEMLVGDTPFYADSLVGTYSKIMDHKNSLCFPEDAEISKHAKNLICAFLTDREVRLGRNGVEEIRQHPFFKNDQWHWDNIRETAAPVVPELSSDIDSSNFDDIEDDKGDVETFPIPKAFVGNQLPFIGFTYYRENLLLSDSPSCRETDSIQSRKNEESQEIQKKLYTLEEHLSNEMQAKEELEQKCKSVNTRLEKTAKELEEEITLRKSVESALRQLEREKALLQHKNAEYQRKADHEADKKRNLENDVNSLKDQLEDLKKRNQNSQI

In the case of `Cc1nc(Br)sc1C(=O)NCc1ccc2sc(-c3ccnc(N)n3)c(C)c2c1` [Example 296, Cc1nc(Br)sc1C(═O)NCc2ccc3sc(c(C)c3c2)-c4ccnc(N)n4], the IC50 in experiment [1] was over 5 µM; in experiment [2], under 5 µM.

Take `Cc1c(-c2ccnc(N)n2)sc2ccc(CNC(=O)c3cccc(O)c3)cc12` [Example 121, Cc1c(sc2ccc(CNC(═O)c3cccc(O)c3)cc12)-c4ccnc(N)n4]: the IC50 in experiment [1] and in experiment [2] was under 5 µM each time.

`Cc1c(-c2ccnc(N)n2)sc2ccc(Br)cc12` [Example 13, 4-(5-Bromo-3-methylbenzo[b]thiophen-2-yl)pyrimidin-2-amine]: the IC50 in experiment [1] and in experiment [2] was under 5 µM throughout.

With `Cc1c(-c2ccnc(N)n2)sc2ccc(CNC(=O)C3CCCN3C(=O)OC(C)(C)C)cc12` (stereo not drawn) [Example 289, Cc1c(sc2ccc(CNC(═O)[C]3CCCN3C(═O)OC(C)(C)C)cc12)-c4ccnc(N)n4], the figures for the half-maximal inhibitory concentration (IC50) in experiment [1] and in experiment [2] were under 5 µM and over 5 µM, respectively.

With `Cc1c(-c2ccnc(N)n2)sc2ccc(CNC(=O)c3ccc(OC(C)C)cc3)cc12` [Example 214, CC(C)Oc1ccc(cc1)C(═O)NCc2ccc3sc(c(C)c3c2)-c4ccnc(N)n4], the IC50 in experiment [1] and in experiment [2] was over 5 µM throughout.

As to `COc1ccc(C(=O)NCc2ccc3sc(-c4ccnc(N)n4)c(C)c3c2)c(OC)c1` [Example 219, COc1ccc(C(═O)NCc2ccc3sc(c(C)c3c2)-c4ccnc(N)n4)c(OC)c1], the IC50 is over 5 µM in experiment [1] and under 5 µM in experiment [2].

For `Cc1c(-c2ccnc(N)n2)sc2ccc(CNC(=O)c3cc(O)ccc3[N+](=O)[O-])cc12` [Example 227, Cc1c(sc2ccc(CNC(═O)c3cc(O)ccc3[N+]([O−])═O)cc12)-c4ccnc(N)n4], the IC50 in experiment [1] is over 5 µM; in experiment [2] it was under 5 µM.

As to `Cc1c(-c2ccnc(N)n2)sc2ccc(CNC(=O)c3cccc(C#N)c3)cc12` [Example 127, Cc1c(sc2ccc(CNC(═O)c3cccc(c3)C#N)cc12)-c4ccnc(N)n4], the IC50 in experiment [1] and in experiment [2] was under 5 µM each time.

With `Cc1c(-c2ccnc(N)n2)sc2ccc(Nc3cccc(NS(C)(=O)=O)c3)cc12` [Example 56, N-(3-(2-(2-Aminopyrimidin-4-yl)-3-methylbenzo[b]thiophen-5-ylamino)phenyl)methanesulfonamide], the IC50 in experiment [1] and in experiment [2] was under 5 µM in each case.

Take `Cc1c(-c2ccnc(N)n2)sc2ccc(CNC(=O)Cc3ccc(O)c(F)c3)cc12` [Example 186, Cc1c(sc2ccc(CNC(═O)Cc3ccc(O)c(F)c3)cc12)-c4ccnc(N)n4]: the IC50 in experiment [1] and in experiment [2] was under 5 µM in each case.

Consider `CC(=O)Oc1ccc(C(=O)Nc2cccc(Nc3ccc4sc(-c5ccnc(N)n5)c(C)c4c3)c2)cc1` [Example 60, 4-(3-(2-(2-Aminopyrimidin-4-yl)-3-methylbenzo[b]thiophen-5-ylamino)phenylcarbamoyl)phenyl acetate], for which the IC50 in experiment [1] and in experiment [2] was under 5 µM in each case.

For `COc1ccc(Cc2ccc3sc(-c4ccnc(N)n4)c(C)c3c2)cc1` [Example 25, 4-(5-(4-Methoxybenzyl)-3-methylbenzo[b]thiophen-2-yl)pyrimidin-2-amine], the IC50 in experiment [1] and in experiment [2] was over 5 µM each time.

On to `Cc1c(-c2ccnc(N)n2)sc2ccc(Oc3ccccc3)cc12` [Example 79, 4-(3-Methyl-5-phenoxybenzo[b]thiophen-2-yl)pyrimidin-2-amine], for which the IC50 in experiment [1] and in experiment [2] was under 5 µM each time.

`Cc1cc(C(=O)NCc2ccc3sc(-c4ccnc(N)n4)c(C)c3c2)ccc1Br` [Example 286, Cc1cc(ccc1Br)C(═O)NCc2ccc3sc(c(C)c3c2)-c4ccnc(N)n4]: the 50% inhibitory concentration (IC50) in experiment [1] and in experiment [2] was over 5 µM throughout.

On to `Cc1c(-c2ccnc(N)n2)sc2ccc(CNC(=O)CC(C)C)cc12` [Example 101, CC(C)CC(═O)NCc1ccc2sc(c(C)c2c1)-c3ccnc(N)n3], for which the IC50 in experiment [1] and in experiment [2] was under 5 µM each time.

As to `Cc1c(-c2ccnc(N)n2)sc2ccc(CNC(=O)c3cccc(F)c3F)cc12` [Example 154, Cc1c(sc2ccc(CNC(═O)c3cccc(F)c3F)cc12)-c4ccnc(N)n4], the IC50 in experiment [1] is over 5 µM; in experiment [2] it was under 5 µM.

`CCCCCc1ccc(C(=O)NCc2ccc3sc(-c4ccnc(N)n4)c(C)c3c2)cc1` [Example 251, CCCCCc1ccc(cc1)C(═O)NCc2ccc3sc(c(C)c3c2)-c4ccnc(N)n4]: the IC50 in experiment [1] is under 5 µM; in experiment [2] it was over 5 µM.

Regarding `Cc1c(-c2ccnc(N)n2)sc2ccc(Nc3cccc(N)c3)cc12` [Example 57, N^1-(2-(2-Aminopyrimidin-4-yl)-3-methylbenzo[b]thiophen-5-yl)benzene-1,3-diamine], the IC50 in experiment [1] and in experiment [2] was under 5 µM in each case.

On to `CCCCc1ccc(C(=O)NCc2ccc3sc(-c4ccnc(N)n4)c(C)c3c2)cc1` [Example 203, CCCCc1ccc(cc1)C(═O)NCc2ccc3sc(c(C)c3c2)-c4ccnc(N)n4], for which the IC50 in experiment [1] and in experiment [2] was over 5 µM in each case.

Regarding `Cc1c(-c2ccnc(N)n2)sc2ccc(CNC(=O)c3ccc(C(F)(F)F)cc3[N+](=O)[O-])cc12` [Example 313, Cc1c(sc2ccc(CNC(═O)c3ccc(cc3[N+]([O−])═O)C(F)(F)F)cc12)-c4ccnc(N)n4], the IC50 in experiment [1] and in experiment [2] was under 5 µM throughout.

With `COc1ccc(Cl)cc1C(=O)NCc1ccc2sc(-c3ccnc(N)n3)c(C)c2c1` [Example 232, COc1ccc(Cl)cc1C(═O)NCc2ccc3sc(c(C)c3c2)-c4ccnc(N)n4], the IC50 in experiment [1] is over 5 µM; in experiment [2], under 5 µM.

In the case of `Cc1c(-c2ccnc(N)n2)sc2ccc(Nc3cccc(NC(=O)c4ccc(C(=O)O)cc4)c3)cc12` [Example 63, 4-(3-(2-(2-Aminopyrimidin-4-yl)-3-methylbenzo[b]thiophen-5-ylamino)phenylcarbamoyl)benzoic acid], the IC50 in experiment [1] and in experiment [2] was under 5 µM in each case.

On to `COc1ccccc1Cc1ccc2sc(-c3ccnc(N)n3)c(C)c2c1` [Example 37, 4-(5-(2-Methoxybenzyl)-3-methylbenzo[b]thiophen-2-yl)pyrimidin-2-amine], for which the IC50 in experiment [1] and in experiment [2] was over 5 µM throughout.

With `COc1cccc(N(C)c2ccc3sc(-c4ccnc(N)n4)c(C)c3c2)c1` [Example 78, 4-(5-((3-Methoxyphenyl)(methyl)amino)-3-methylbenzo[b]thiophen-2-yl)pyrimidin-2-amine], the IC50 in experiment [1] and in experiment [2] was under 5 µM each time.

For the molecule `Cc1c(-c2ccnc(N)n2)sc2ccc(CNC(=O)C(C)c3ccc(-c4ccccc4)c(F)c3)cc12` (stereo not drawn) [Example 318, CC(C(═O)NCc1ccc2sc(c(C)c2c1)-c3ccnc(N)n3)c4ccc(c(F)c4)-c5ccccc5], the IC50 was over 5 µM in experiment [1] and under 5 µM in experiment [2].

`Cc1c(-c2ccnc(N)n2)sc2ccc(CNC(=O)C3CN(C(=O)OC(C)(C)C)CCN3)cc12` (stereo not drawn) [Example 308, Cc1c(sc2ccc(CNC(═O)[C]3CN(CCN3)C(═O)OC(C)(C)C)cc12)-c4ccnc(N)n4]: the IC50 in experiment [1] and in experiment [2] was over 5 µM in each case.

Consider `Cc1c(-c2ccnc(N)n2)sc2ccc(CNC(=O)c3ccc(F)cc3)cc12` [Example 123, Cc1c(sc2ccc(CNC(═O)c3ccc(F)cc3)cc12)-c4ccnc(N)n4], for which the IC50 is over 5 µM in experiment [1] and under 5 µM in experiment [2].

As for `Cc1c(-c2ccnc(N)n2)sc2ccc(CNC(=O)C=Cc3ccccc3)cc12` [Example 128, Cc1c(sc2ccc(CNC(═O)C═Cc3ccccc3)cc12)-c4ccnc(N)n4], the half-maximal inhibitory concentration (IC50) in experiment [1] and in experiment [2] was under 5 µM in each case.

On to `Cc1c(-c2ccnc(N)n2)sc2ccc(CNC(=O)C3CCCCN3C(=O)OC(C)(C)C)cc12` (stereo not drawn) [Example 305, Cc1c(sc2ccc(CNC(═O)[C]3CCCCN3C(═O)OC(C)(C)C)cc12)-c4ccnc(N)n4], for which the IC50 in experiment [1] and in experiment [2] was over 5 µM in each case.

Regarding `CC(=O)Nc1cccc(Nc2ccc3sc(-c4ccnc(N)n4)c(C)c3c2)c1` [Example 58, N-(3-(2-(2-Aminopyrimidin-4-yl)-3-methylbenzo[b]thiophen-5-ylamino)phenyl)acetamide], the IC50 in experiment [1] and in experiment [2] was under 5 µM throughout.

Source of the values: US20080021026A1, “BENZOTHIOPHENE INHIBITORS OF RHO KINASE” (priority 2006, published 2008).
